Results as given in patent US7470711B2, “Piperidinyl substituted cyclohexane-1,4-diamines” (Janssen Pharmaceutica N.V., priority 2005, dated 2008).
pKi: −log10 of the molar value. Counter-ions that a name gives are not always drawn. Like-named read-outs stand apart in the source and are kept apart here.

What was measured:
α1a-AR = molecular target: T1, α1a-AR (Homo sapiens, UniProt P35348); assay: α1-Adrenergic receptor radio-ligand binding assay, α1a subtype
T1 construct: expressed in transfected cells; host or cells: COS-7 cells (membranes)
T1 sequence (P35348 1-455 isoform P35348-4): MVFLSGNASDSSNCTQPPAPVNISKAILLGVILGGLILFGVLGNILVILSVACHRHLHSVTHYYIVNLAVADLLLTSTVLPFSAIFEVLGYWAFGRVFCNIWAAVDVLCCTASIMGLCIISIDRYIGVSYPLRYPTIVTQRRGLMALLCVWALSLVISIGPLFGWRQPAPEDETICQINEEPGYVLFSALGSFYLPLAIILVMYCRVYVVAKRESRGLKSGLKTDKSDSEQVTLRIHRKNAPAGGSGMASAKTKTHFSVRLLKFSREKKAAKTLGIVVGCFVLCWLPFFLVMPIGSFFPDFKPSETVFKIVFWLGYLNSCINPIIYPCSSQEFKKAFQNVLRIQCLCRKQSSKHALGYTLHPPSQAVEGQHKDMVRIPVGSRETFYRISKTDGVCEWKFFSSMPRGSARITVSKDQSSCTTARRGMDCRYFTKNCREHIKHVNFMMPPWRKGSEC
Procedure: (§1) Membranes were prepared from COS-7 cells (African Green monkey kidney SV40-transformed cells) that had been transfected with one of the three α1-AR subtypes (Genbank accession number for the α1a subtype: AF013261; Genbank accession number for the α1b subtype: NM000679; Genbank accession number for the α1d subtype: NM000678) using the following method: COS cells from ten 100 mm tissue culture plates were scraped into a 5 mL volume of TE (a mixture of 50 mM Tris-HCl, 5 mM EDTA, pH 7.4). […] The disrupted cells were centrifuged at 1000×g for 10 min at 4° C. Supernatants were centrifuged at 34,500×g for 20 min at 4° C. The membrane pellets were suspended in a 2 mL volume of TNE (a mixture of 50 mM Tris-HCl, 5 mM EDTA and 150 mM NaCl at pH 7.4). An aliquot of the membrane suspension was stored at −70° C. until use. The protein concentration was determined using the BioRad “DC” protein assay kit following membrane solubilization with Triton X-100.
(§2) Triplicate determinations of radio-ligand binding in the presence of increasing concentrations of testing compound were made. The reagents were added to 96-well polypropylene plate wells. […] The plate was incubated at rt for 1 hr. The contents of the wells were filtered through a glass filter (type C) (GF/C) membrane Unifilter plate (Packard Instruments) using the Packard Filtermate cell harvester. The filter plates were dried in a vacuum oven for 30 min at 40° C. 25 μL Microscint 20 liquid scintillation fluid (Packard Instuments) was added to each well. The radioactive content was analyzed in the TopCount microplate scintillation counter (Packard Instruments).

α1b-AR = molecular target: T2, α1b-AR (Homo sapiens, UniProt P35368); assay: α1-Adrenergic receptor radio-ligand binding assay, α1b subtype
T2 construct: expressed in transfected cells; host or cells: COS-7 cells (membranes)
T2 sequence (P35368 1-520): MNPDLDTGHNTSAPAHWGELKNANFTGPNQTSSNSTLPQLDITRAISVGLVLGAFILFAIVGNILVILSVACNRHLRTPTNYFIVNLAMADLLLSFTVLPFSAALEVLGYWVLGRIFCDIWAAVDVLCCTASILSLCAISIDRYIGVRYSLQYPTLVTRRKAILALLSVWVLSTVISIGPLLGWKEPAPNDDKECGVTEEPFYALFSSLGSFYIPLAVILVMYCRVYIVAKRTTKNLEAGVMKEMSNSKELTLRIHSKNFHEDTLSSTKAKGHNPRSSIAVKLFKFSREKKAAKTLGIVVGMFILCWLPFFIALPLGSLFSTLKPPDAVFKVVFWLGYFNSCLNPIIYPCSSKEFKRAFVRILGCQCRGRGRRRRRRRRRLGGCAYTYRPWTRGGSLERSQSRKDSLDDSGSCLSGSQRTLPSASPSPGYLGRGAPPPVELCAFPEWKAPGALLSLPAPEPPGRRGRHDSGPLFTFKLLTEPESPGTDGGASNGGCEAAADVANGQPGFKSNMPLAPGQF
Procedure: as §1, §2

α1d-AR = molecular target: T3, α1d-AR (Homo sapiens, UniProt P25100); assay: α1-Adrenergic receptor radio-ligand binding assay, α1d subtype
T3 construct: expressed in transfected cells; host or cells: COS-7 cells (membranes)
T3 sequence (P25100 1-572): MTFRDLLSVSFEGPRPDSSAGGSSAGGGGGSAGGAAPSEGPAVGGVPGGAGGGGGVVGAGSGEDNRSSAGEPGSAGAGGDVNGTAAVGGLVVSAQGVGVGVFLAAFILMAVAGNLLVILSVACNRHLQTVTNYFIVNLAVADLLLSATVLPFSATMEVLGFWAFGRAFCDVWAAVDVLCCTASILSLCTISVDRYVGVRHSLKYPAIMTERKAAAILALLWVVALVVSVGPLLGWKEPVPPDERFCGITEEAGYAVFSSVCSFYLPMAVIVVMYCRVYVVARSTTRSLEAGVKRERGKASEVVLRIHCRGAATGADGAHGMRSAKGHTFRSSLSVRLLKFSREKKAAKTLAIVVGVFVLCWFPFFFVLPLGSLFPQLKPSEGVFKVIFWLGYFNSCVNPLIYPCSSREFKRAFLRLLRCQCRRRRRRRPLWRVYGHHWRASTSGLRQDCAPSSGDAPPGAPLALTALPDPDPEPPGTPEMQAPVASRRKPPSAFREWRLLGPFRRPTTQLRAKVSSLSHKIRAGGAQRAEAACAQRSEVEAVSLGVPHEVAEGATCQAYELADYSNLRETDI
Procedure: as §1, §2

[1] = 125I-HEAT, membranes of COS-7 cells transfected with α1a subtype, rt 1 hr, read-out: Receptor Binding, Ki α1a-AR
[2] = 125I-HEAT, membranes of COS-7 cells transfected with α1b subtype, rt 1 hr, read-out: Receptor Binding, Ki α1b-AR
[3] = 125I-HEAT, membranes of COS-7 cells transfected with α1d subtype, rt 1 hr, read-out: Receptor Binding, Ki α1d-AR

Row | SMILES | melting point | pKi (α1a-AR; [1]) | pKi (α1b-AR; [2]) | pKi (α1d-AR; [3]) | pKi (α1d-AR) | pKi (α1a-AR) | pKi (α1b-AR)
1 | COc1ccc(S(=O)(=O)N[C@H]2CC[C@@H](N3CCC(c4ccccc4OC(C)C)CC3)CC2)cc1OC (as salt: fumarate) [Cpd 1, N-cis-{4-[4-(2-isopropoxy-phenyl)-piperidin-1-yl]-cyclohexyl}-3,4-dimethoxy-benzenesulfonamide] | 221 °C | – | – | – | – | – | –
2 | COc1ccc(S(=O)(=O)N[C@H]2CC[C@@H](N3CCC(c4ccccc4OCC(F)(F)F)CC3)CC2)cc1OC (as salt: fumarate) [Cpd 5, 3,4-dimethoxy-N-cis-(4-{4-[2-(2,2,2-trifluoro-ethoxy)-phenyl]-piperidin-1-yl}-cyclohexyl)-benzenesulfonamide] | 201 °C (dec.) | – | – | – | – | – | –
3 | CC(C)Oc1ccccc1C1CCN([C@H]2CC[C@@H](NS(=O)(=O)c3ccc(F)c(F)c3)CC2)CC1 [Cpd 3, 3,4-difluoro-N-cis-{4-[4-(2-isopropoxy-phenyl)-piperidin-1-yl]-cyclohexyl}-benzenesulfonamide] | 176 °C | 8.52 | 6.33 | 8.14 | – | – | –
4 | CC(C)Oc1ccccc1C1CCN([C@H]2CC[C@H](NS(=O)(=O)c3ccc(F)c(F)c3)CC2)CC1 [Cpd 4, 3,4-difluoro-N-trans-{4-[4-(2-isopropoxy-phenyl)-piperidin-1-yl]-cyclohexyl}-benzenesulfonamide] | 239 °C | – | – | – | 7.05 | – | –
5 | O=S(=O)(N[C@H]1CC[C@@H](N2CCC(c3ccccc3OCC(F)(F)F)CC2)CC1)c1ccc2c(c1)OCCO2 [Cpd 13, 2,3-dihydro-benzo[1,4]dioxine-6-sulfonic acid cis-(4-{4-[2-(2,2,2-trifluoro-ethoxy)-phenyl]-piperidin-1-yl}-cyclohexyl)-amide] | 190 °C | – | – | – | 8.52 | 8.40 | 7.04
6 | O=S(=O)(N[C@H]1CC[C@H](N2CCC(c3ccccc3OCC(F)(F)F)CC2)CC1)c1ccc2c(c1)OCCO2 [Cpd 14, 2,3-dihydro-benzo[1,4]dioxine-6-sulfonic acid trans-(4-{4-[2-(2,2,2-trifluoro-ethoxy)-phenyl]-piperidin-1-yl}-cyclohexyl)-amide] | 146 °C | – | – | – | 7.59 | 8.66 | 7.04
7 | COc1ccc(Cl)cc1S(=O)(=O)N[C@H]1CC[C@@H](N2CCC(c3ccccc3OCC(F)(F)F)CC2)CC1 [Cpd 17, 5-chloro-2-methoxy-N-cis-(4-{4-[2-(2,2,2-trifluoro-ethoxy)-phenyl]-piperidin-1-yl}-cyclohexyl)-benzenesulfonamide] | 200 °C | 8.21 | 6.67 | – | 8.82 | – | –
8 | COc1ccc(Cl)cc1S(=O)(=O)N[C@H]1CC[C@H](N2CCC(c3ccccc3OCC(F)(F)F)CC2)CC1 [Cpd 18, 5-chloro-2-methoxy-N-trans-(4-{4-[2-(2,2,2-trifluoro-ethoxy)-phenyl]-piperidin-1-yl}-cyclohexyl)-benzenesulfonamide] | 197 °C | – | 6.15 | 7.44 | – | 7.98 | –
9 | O=S(=O)(N[C@H]1CC[C@@H](N2CCC(c3ccccc3OCC(F)(F)F)CC2)CC1)c1cc(Cl)ccc1F [Cpd 19, 5-chloro-2-fluoro-N-cis-(4-{4-[2-(2,2,2-trifluoro-ethoxy)-phenyl]-piperidin-1-yl}-cyclohexyl)-benzenesulfonamide] | 204 °C | – | 6.74 | 9.01 | – | 8.24 | –
10 | O=S(=O)(N[C@H]1CC[C@H](N2CCC(c3ccccc3OCC(F)(F)F)CC2)CC1)c1cc(Cl)ccc1F [Cpd 20, 5-chloro-2-fluoro-N-trans-(4-{4-[2-(2,2,2-trifluoro-ethoxy)-phenyl]-piperidin-1-yl}-cyclohexyl)-benzenesulfonamide] | 227 °C | – | 6.10 | 7.36 | – | 8.33 | –
11 | O=S(=O)(N[C@H]1CC[C@@H](N2CCC(c3ccccc3OCC(F)(F)F)CC2)CC1)c1cccc(OC(F)F)c1 [Cpd 23, 3-difluoromethoxy-N-cis-(4-{4-[2-(2,2,2-trifluoro-ethoxy)-phenyl]-piperidin-1-yl}-cyclohexyl)-benzenesulfonamide] | 105 °C | 8.15 | 6.58 | 8.23 | – | – | –
12 | O=S(=O)(N[C@H]1CC[C@H](N2CCC(c3ccccc3OCC(F)(F)F)CC2)CC1)c1cccc(OC(F)F)c1 [Cpd 24, 3-difluoromethoxy-N-trans-(4-{4-[2-(2,2,2-trifluoro-ethoxy)-phenyl]-piperidin-1-yl}-cyclohexyl)-benzenesulfonamide] | 169 °C | 7.92 | 6.45 | 7.15 | – | – | –
13 | O=S(=O)(N[C@H]1CC[C@@H](N2CCC(c3ccccc3OCC(F)(F)F)CC2)CC1)c1ccc(OC(F)F)cc1 [Cpd 25, 4-difluoromethoxy-N-cis-(4-{4-[2-(2,2,2-trifluoro-ethoxy)-phenyl]-piperidin-1-yl}-cyclohexyl)-benzenesulfonamide] | 196 °C | 8.27 | 7.12 | 8.57 | – | – | –
14 | O=S(=O)(N[C@H]1CC[C@H](N2CCC(c3ccccc3OCC(F)(F)F)CC2)CC1)c1ccc(OC(F)F)cc1 [Cpd 26, 4-difluoromethoxy-N-trans-(4-{4-[2-(2,2,2-trifluoro-ethoxy)-phenyl]-piperidin-1-yl}-cyclohexyl)-benzenesulfonamide] | 155 °C | – | 6.52 | 7.07 | – | 7.43 | –
15 | COc1ccc(S(=O)(=O)N[C@H]2CC[C@@H](N3CCC(c4ccccc4OCCF)CC3)CC2)cc1OC [Cpd 27, N-cis-(4-{4-[2-(2-fluoro-ethoxy)-phenyl]-piperidin-1-yl}-cyclohexyl)-3,4-dimethoxy-benzenesulfonamide] | 225 °C | 7.96 | 6.45 | 8.06 | – | – | –
16 | COc1ccc(S(=O)(=O)N[C@H]2CC[C@H](N3CCC(c4ccccc4OCCF)CC3)CC2)cc1OC [Cpd 28, N-trans-(4-{4-[2-(2-fluoro-ethoxy)-phenyl]-piperidin-1-yl}-cyclohexyl)-3,4-dimethoxy-benzenesulfonamide] | 142 °C | 7.16 | 5.36 | 7.31 | – | – | –
